Values of other authors in patent US6316468A, “Phenylindole derivatives as 5-HT2A receptor antagonists” (Merck Sharp & Dohme Ltd., priority 1997, dated 2001).

Assays:
[1] = system: human dopamine D2 receptor
[2] = system: apomorphine-induced stereotyped behaviour; settings: animal models, preclinical studies
[3] = schizophrenic patients, multicentre, placebo-controlled study

## COc1cccc(C(O)C2CCN(CCc3ccc(F)cc3)CC2)c1OC (single isomer, unassigned) [MDL-100,907, (+)-α-(2,3-dimethoxyphenyl)-1-[2-(4-fluorophenyl)-ethyl]-4-piperidinemethanol]
[1]
  activity at the human dopamine D2 receptor: essentially devoid of activity
Human 5-HT2A receptors
  antagonism of human 5-HT2A receptors: potent antagonist
[2]
  block of apomorphine-induced stereotyped behaviour: failed to block apomorphine-induced stereotyped behaviour
[3]
  efficacy for antipsychotic potential: demonstrated efficacy
